The test system of this test is L1210 leukemia ip in BDF1 mice, survival T/C. The test can be described thus: NCI In Vivo Anticancer Drug Screen. Data for tumor model L1210 Leukemia (intraperitoneal) in B6D2F1 (BDF1) mice. The following applies: endpoint: mean survival time, higher = longer survival. In outline: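 Transplantable tumor model; survival measured in treated vs vehicle control mice. Value = treated/control.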

Where [1] appears, read: dose: 50.0 mg/kg/injection, schedule: Q01DX001 (ip), vehicle: Klucel (hydroxypropylcellulose) (HPC).
Where [2] appears, read: dose: 100.0 mg/kg/injection, schedule: Q01DX001 (ip), vehicle: Klucel (hydroxypropylcellulose) (HPC).
Where [3] appears, read: dose: 100.0 mg/kg/injection, schedule: Q04DX003 (ip), vehicle: Klucel (hydroxypropylcellulose) (HPC).
[4] abbreviates: dose: 200.0 mg/kg/injection, schedule: Q01DX001 (ip), vehicle: Klucel (hydroxypropylcellulose) (HPC).
Where [5] appears, read: dose: 400.0 mg/kg/injection, schedule: Q04DX003 (ip), vehicle: Klucel (hydroxypropylcellulose) (HPC).
Where [6] appears, read: dose: 200.0 mg/kg/injection, schedule: Q04DX003 (ip), vehicle: Klucel (hydroxypropylcellulose) (HPC).

Where “and” joins values, the source holds several entries; their conditions need not be identical. Identical values can stand only once. Inconclusive results and toxic doses are left out.

As for `Nc1ncnc(N)c1NC(=O)c1ccc(C(=O)c2cccc([N+](=O)[O-])c2)cc1`, the T/C runs as follows: (dose: 100.0 mg/kg/injection, schedule: Q01DX001 (ip), vehicle: gum acacia) 97 % of control; (dose: 200.0 mg/kg/injection, schedule: Q01DX001 (ip), vehicle: gum acacia) 100 % of control; (dose: 400.0 mg/kg/injection, schedule: Q01DX001 (ip), vehicle: gum acacia) 93 % of control.
`CCCOC(=O)C1(N)CCCC1`: the T/C reads like this: (dose: 16.0 mg/kg/injection, schedule: Q01DX Z (ip), vehicle: carboxymethylcellulose (CMC)) 117 % of control; (dose: 31.0 mg/kg/injection, schedule: Q01DX Z (ip), vehicle: carboxymethylcellulose (CMC)) 119 % of control; (dose: 45.0 mg/kg/injection, schedule: Q01DX Z (ip), vehicle: saline) 114 % of control; under setting [1], 98 % of control; (dose: 50.0 mg/kg/injection, schedule: Q04DX003 (ip), vehicle: Klucel (hydroxypropylcellulose) (HPC)) 103 % of control; (dose: 62.0 mg/kg/injection, schedule: Q01DX Z (ip), vehicle: carboxymethylcellulose (CMC)) 120 % of control. Moreover, the T/C is, setting by setting: under setting [2], 106 % of control; (dose: 100.0 mg/kg/injection, schedule: Q01DX Z (ip), vehicle: saline) 121 % of control; under setting [3], 117 % of control; (dose: 148.0 mg/kg/injection, schedule: Q01DX Z (ip), vehicle: saline) 160 % of control; (dose: 150.0 mg/kg/injection, schedule: Q01DX Z (ip), vehicle: saline) 114 % of control; under setting [4], 117 % of control and 118 % of control. The T/C was 110 % of control (dose: 336.0 mg/kg/injection, schedule: Q01DX Z (ip), vehicle: saline); 121 % of control under setting [5]; 89 % of control (dose: 500.0 mg/kg/injection, schedule: Q01DX Z (ip), vehicle: carboxymethylcellulose (CMC)); 116 % of control (dose: 504.0 mg/kg/injection, schedule: Q01DX Z (ip), vehicle: saline).
`O=c1[nH]c(SCc2cccc([N+](=O)[O-])c2)nc2nc[nH]c12`: the T/C is, setting by setting: under setting [1], 96 % of control; under setting [2], 100 % of control; under setting [4], 107 % of control.
Regarding `O=C1C(Cl)=C(N2CC2)C(=O)c2ccccc21`, the T/C is, setting by setting: (dose: 2.5 mg/kg/injection, schedule: Q01DX009 (ip), vehicle: Klucel (hydroxypropylcellulose) (HPC)) 107 % of control; (dose: 5.0 mg/kg/injection, schedule: Q01DX009 (ip), vehicle: Klucel (hydroxypropylcellulose) (HPC)) 93 % of control.
With `O=C(N=c1cc(-c2ccc(Cl)cc2)ss1)C(Cc1ccccc1)N1C(=O)c2ccccc2C1=O` (stereo not drawn), the T/C is 102 % of control (dose: 25.0 mg/kg/injection, schedule: Q01DX009 (ip), vehicle: water); 102 % of control (dose: 50.0 mg/kg/injection, schedule: Q01DX009 (ip), vehicle: water); 96 % of control (dose: 100.0 mg/kg/injection, schedule: Q01DX009 (ip), vehicle: water); 95 % of control (dose: 200.0 mg/kg/injection, schedule: Q01DX009 (ip), vehicle: water); 87 % of control (dose: 400.0 mg/kg/injection, schedule: Q01DX009 (ip), vehicle: water).
Turning to `CC1C2CCC1(C)C(C=O)C2` (stereo not drawn), the T/C is, setting by setting: (dose: 75.0 mg/kg/injection, schedule: Q01DX001 (ip), vehicle: saline) 93 % of control; (dose: 150.0 mg/kg/injection, schedule: Q01DX001 (ip), vehicle: saline) 88 % of control; (dose: 300.0 mg/kg/injection, schedule: Q01DX001 (ip), vehicle: saline) 88 % of control.
On to `O=[N+]([O-])c1ccc(N/N=C/CCl)c([N+](=O)[O-])c1`, for which the T/C reads like this: (dose: 6.25 mg/kg/injection, schedule: Q01DX009 (ip), vehicle: saline with Tween-80) 94 % of control and 98 % of control; (dose: 6.25 mg/kg/injection, schedule: Q04DX003 (ip), vehicle: saline with Tween-80) 99 % of control; (dose: 12.5 mg/kg/injection, schedule: Q01DX009 (ip), vehicle: saline with Tween-80) 102 % of control and 105 % of control; (dose: 12.5 mg/kg/injection, schedule: Q04DX003 (ip), vehicle: saline with Tween-80) 87 % of control; (dose: 25.0 mg/kg/injection, schedule: Q01DX009 (ip), vehicle: saline with Tween-80) 98 % of control and 103 % of control; (dose: 25.0 mg/kg/injection, schedule: Q04DX003 (ip), vehicle: saline with Tween-80) 91 % of control.
For `COc1cc(C)ccc1C(=O)c1ccc(C)cc1OC`, the T/C was 100 % of control (dose: 100.0 mg/kg/injection, schedule: Q01DX001 (ip), vehicle: saline with Tween-80); 98 % of control (dose: 100.0 mg/kg/injection, schedule: Q01DX009 (ip), vehicle: saline with Tween-80); 86 % of control under setting [3]; 100 % of control (dose: 200.0 mg/kg/injection, schedule: Q01DX001 (ip), vehicle: saline with Tween-80); 92 % of control (dose: 200.0 mg/kg/injection, schedule: Q01DX009 (ip), vehicle: saline with Tween-80); 93 % of control under setting [6]. The T/C reads like this: (dose: 400.0 mg/kg/injection, schedule: Q01DX001 (ip), vehicle: saline with Tween-80) 92 % of control; (dose: 400.0 mg/kg/injection, schedule: Q01DX009 (ip), vehicle: saline with Tween-80) 103 % of control; under setting [5], 93 % of control.
As for `Nc1ncnc2c1ncn2C1OC(CO)C(N)C1O` (stereo not drawn), the T/C by setting is: (dose: 1.3 mg/kg/injection, schedule: Q01DX Z (ip), vehicle: carboxymethylcellulose (CMC)) 105 % of control; (dose: 2.0 mg/kg/injection, schedule: Q01DX Z (ip), vehicle: carboxymethylcellulose (CMC)) 108 % of control; (dose: 3.0 mg/kg/injection, schedule: Q01DX Z (ip), vehicle: carboxymethylcellulose (CMC)) 113 % of control.
Turning to `CCC/C(=C/c1cc2ccccc2c2ccccc12)[N+](=O)[O-]`, the T/C reads like this: (dose: 100.0 mg/kg/injection, schedule: Q01DX001 (ip), vehicle: carboxymethylcellulose (CMC)) 97 % of control; (dose: 200.0 mg/kg/injection, schedule: Q01DX001 (ip), vehicle: carboxymethylcellulose (CMC)) 111 % of control; (dose: 400.0 mg/kg/injection, schedule: Q01DX001 (ip), vehicle: carboxymethylcellulose (CMC)) 106 % of control.
On to `CCCCCC(C)NCC(C)O` (stereo not drawn), for which the T/C (dose: 75.0 mg/kg/injection, schedule: Q01DX001 (ip), vehicle: acid diluted with saline) is 100 % of control.
Consider `CCCCCCCCCCCOc1ccc(C=Nc2ccc(C)cc2)cc1`, for which the T/C under setting [3] is 101 % of control, the T/C under setting [6] is 98 % of control and the T/C under setting [5] was 98 % of control.
On to `CCCCn1cc(COCC)c(=O)[nH]c1=O`, for which the T/C was 98 % of control (dose: 50.0 mg/kg/injection, schedule: Q04DX002 (ip), vehicle: Klucel (hydroxypropylcellulose) (HPC)); 102 % of control (dose: 100.0 mg/kg/injection, schedule: Q04DX002 (ip), vehicle: Klucel (hydroxypropylcellulose) (HPC)); 98 % of control (dose: 200.0 mg/kg/injection, schedule: Q04DX002 (ip), vehicle: Klucel (hydroxypropylcellulose) (HPC)).
`N#C/C(=C\c1cccnc1)c1ccc(Br)cc1`: the T/C reads like this: (dose: 100.0 mg/kg/injection, schedule: Q01DX009 (ip), vehicle: saline sonified) 98 % of control; (dose: 200.0 mg/kg/injection, schedule: Q01DX009 (ip), vehicle: saline sonified) 100 % of control; (dose: 400.0 mg/kg/injection, schedule: Q01DX009 (ip), vehicle: saline sonified) 93 % of control.
For the compound `CCOP(=O)(OCC)C1=C(P(=O)(OCC)OCC)C(F)(F)C1(F)F`, the T/C (dose: 75.0 mg/kg/injection, schedule: Q01DX001 (ip), vehicle: other) was 102 % of control.
With `Clc1ccc(Br)c(Cl)c1`, the T/C by setting is: (dose: 100.0 mg/kg/injection, schedule: Q01DX009 (ip), vehicle: Klucel (hydroxypropylcellulose) (HPC)) 98 % of control; under setting [3], 94 % of control; (dose: 200.0 mg/kg/injection, schedule: Q01DX009 (ip), vehicle: Klucel (hydroxypropylcellulose) (HPC)) 94 % of control; under setting [6], 109 % of control; (dose: 400.0 mg/kg/injection, schedule: Q01DX009 (ip), vehicle: Klucel (hydroxypropylcellulose) (HPC)) 92 % of control; under setting [5], 93 % of control.
Take `C1CC(CCN2CCOCC2)CCN1`: the T/C is, setting by setting: (dose: 100.0 mg/kg/injection, schedule: Q01DX001 (ip), vehicle: saline) 98 % of control; (dose: 200.0 mg/kg/injection, schedule: Q01DX001 (ip), vehicle: saline) 107 % of control; (dose: 400.0 mg/kg/injection, schedule: Q01DX001 (ip), vehicle: saline) 105 % of control.

The values above are taken from PubChem BioAssay AID248 (DTP/NCI, 2004).
